# Legend:
# Type in all cases: cell-based
# Conditions in all cases: Compound 1 = 100
# IL-6 = assay: IL-6, mouse (Tables 1-3)
# TLR4 [1] = biological target: TLR4 (Homo sapiens, UniProt O00206+Q9Y6Y9); assay: TLR4, human (Tables 1-3)
# IL-8 = assay: IL-8, human (Tables 1-3)
# IP-10 = assay: IP-10, mouse (Tables 1-3)
# TLR4 [2] = biological target: T1, TLR4 (Mus musculus, UniProt Q9JHF9+Q9QUK6); assay: TLR4, mouse (Tables 1-3)
# T1 sequence (Q9QUK6 26-835): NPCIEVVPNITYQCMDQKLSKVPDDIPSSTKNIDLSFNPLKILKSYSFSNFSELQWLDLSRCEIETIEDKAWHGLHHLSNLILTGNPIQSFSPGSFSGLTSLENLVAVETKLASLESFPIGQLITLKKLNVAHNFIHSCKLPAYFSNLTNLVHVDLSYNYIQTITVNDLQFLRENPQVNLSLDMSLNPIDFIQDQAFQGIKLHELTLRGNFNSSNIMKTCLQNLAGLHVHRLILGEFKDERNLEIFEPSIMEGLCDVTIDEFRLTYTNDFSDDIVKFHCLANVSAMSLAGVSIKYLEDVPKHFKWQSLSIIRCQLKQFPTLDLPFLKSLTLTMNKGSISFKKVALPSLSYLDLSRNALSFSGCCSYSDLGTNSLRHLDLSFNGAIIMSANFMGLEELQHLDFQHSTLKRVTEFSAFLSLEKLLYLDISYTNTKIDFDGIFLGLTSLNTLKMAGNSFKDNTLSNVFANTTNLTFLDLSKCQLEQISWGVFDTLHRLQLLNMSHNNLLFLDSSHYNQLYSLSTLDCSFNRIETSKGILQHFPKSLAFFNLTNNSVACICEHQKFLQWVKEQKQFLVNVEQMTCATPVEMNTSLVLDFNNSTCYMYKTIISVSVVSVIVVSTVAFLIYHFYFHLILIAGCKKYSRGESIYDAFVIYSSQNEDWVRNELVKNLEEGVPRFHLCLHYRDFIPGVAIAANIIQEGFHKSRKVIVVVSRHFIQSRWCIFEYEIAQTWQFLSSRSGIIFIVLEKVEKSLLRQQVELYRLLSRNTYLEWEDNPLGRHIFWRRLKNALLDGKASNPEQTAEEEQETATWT
# T1 sequence (Q9JHF9 19-160): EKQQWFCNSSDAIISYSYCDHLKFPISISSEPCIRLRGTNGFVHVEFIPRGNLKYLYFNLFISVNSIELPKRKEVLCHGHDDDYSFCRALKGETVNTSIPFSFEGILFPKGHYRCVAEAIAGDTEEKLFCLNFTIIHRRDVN
# [3] = Table 1, R^3 series, footnotes not given
# Note: test concentration or dose not given here.
# Sequence of TLR4 (Homo sapiens, UniProt O00206+Q9Y6Y9) (O00206 24-839): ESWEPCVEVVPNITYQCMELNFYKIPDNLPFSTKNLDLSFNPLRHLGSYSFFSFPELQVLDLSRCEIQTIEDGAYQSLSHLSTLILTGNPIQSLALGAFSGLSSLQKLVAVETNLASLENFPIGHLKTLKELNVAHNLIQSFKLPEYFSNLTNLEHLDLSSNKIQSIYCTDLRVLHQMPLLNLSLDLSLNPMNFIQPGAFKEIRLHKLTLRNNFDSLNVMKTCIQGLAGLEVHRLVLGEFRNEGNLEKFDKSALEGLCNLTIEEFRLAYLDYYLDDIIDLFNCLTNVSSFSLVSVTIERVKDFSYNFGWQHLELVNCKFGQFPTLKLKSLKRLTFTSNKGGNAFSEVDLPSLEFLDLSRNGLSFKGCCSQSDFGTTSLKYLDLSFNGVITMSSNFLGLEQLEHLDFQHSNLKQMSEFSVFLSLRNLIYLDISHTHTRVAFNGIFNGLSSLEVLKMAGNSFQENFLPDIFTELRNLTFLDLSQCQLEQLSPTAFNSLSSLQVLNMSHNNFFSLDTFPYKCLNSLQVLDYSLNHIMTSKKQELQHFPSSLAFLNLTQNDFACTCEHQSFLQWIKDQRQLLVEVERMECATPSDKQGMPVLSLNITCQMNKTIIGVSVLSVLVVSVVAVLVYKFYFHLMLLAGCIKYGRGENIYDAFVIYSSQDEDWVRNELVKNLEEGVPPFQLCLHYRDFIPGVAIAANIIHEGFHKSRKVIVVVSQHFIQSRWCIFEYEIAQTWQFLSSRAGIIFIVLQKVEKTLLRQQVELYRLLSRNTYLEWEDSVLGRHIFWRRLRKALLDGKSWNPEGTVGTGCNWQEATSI
# Sequence of TLR4 (Homo sapiens, UniProt O00206+Q9Y6Y9) (Q9Y6Y9 17-160 limits assumed): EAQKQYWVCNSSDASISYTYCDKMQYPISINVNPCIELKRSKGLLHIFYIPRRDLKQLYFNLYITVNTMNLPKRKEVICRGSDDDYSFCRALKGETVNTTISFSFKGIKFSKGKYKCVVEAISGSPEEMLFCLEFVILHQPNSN
SMILES,mouse IL-6 (IL-6; [3]),"human TLR4 (TLR4 [1]; Table 1, R^3 series)","human IL-8 (IL-8; Table 1, R^3 series)","mouse IP-10 (IP-10; Table 1, R^3 series)","mouse TLR4 (TLR4 [2]; Table 1, R^3 series)","mouse IL-6 (IL-6; Table 2, R^2 series)","human TLR4 (TLR4 [1]; Table 2, R^2 series)","human IL-8 (IL-8; Table 2, R^2 series)","mouse IP-10 (IP-10; Table 2, R^2 series)","mouse TLR4 (TLR4 [2]; Table 2, R^2 series)","mouse IL-6 (IL-6; Table 3, R^1 series)","human TLR4 (TLR4 [1]; Table 3, R^1 series)","human IL-8 (IL-8; Table 3, R^1 series)","mouse IP-10 (IP-10; Table 3, R^1 series)","mouse TLR4 (TLR4 [2]; Table 3, R^1 series)"
Cn1c2ccccc2c2nc(SCC(=O)NC3CCCCC3)n(-c3ccccc3)c(=O)c21 [Compound 42],101,92,79,99,100,,,,,,,,,,
O=C(CSc1nc2c([nH]c3ccccc32)c(=O)n1-c1ccccc1)Nc1ccc(F)cc1 [Compound 14],,,,,,103,108,107,70,81,,,,,
O=C(CSc1nc2c([nH]c3ccccc32)c(=O)n1-c1ccccc1)NCC1CCCO1 (centres unmarked) [Compound 33],,,,,,23,13,8,54,21,,,,,
CC(C)(C)CCNC(=O)CSc1nc2c([nH]c3ccccc32)c(=O)n1-c1ccccc1 [Compound 28],,,,,,99,72,95,85,126,,,,,
O=C(CSc1nc2c([nH]c3ccccc32)c(=O)n1-c1ccccc1)Nc1ccccc1F [Compound 15],,,,,,36,71,61,54,43,,,,,
N#CCn1c2ccccc2c2nc(SCC(=O)NC3CCCCC3)n(-c3ccccc3)c(=O)c21 [Compound 51],98,19,30,64,55,,,,,,,,,,
O=C(CSc1nc2c([nH]c3ccccc32)c(=O)n1-c1ccccc1)NCc1ccco1 [Compound 19],,,,,,18,27,15,26,5,,,,,
CCCCCCCCCCCCn1c2ccccc2c2nc(SCC(=O)NC3CCCCC3)n(-c3ccccc3)c(=O)c21 [Compound 50],<1,10,<1,<1,4,,,,,,,,,,
CC(C)CNC(=O)CSc1nc2c([nH]c3ccccc32)c(=O)n1-c1ccccc1 [Compound 26],,,,,,44,21,11,53,24,,,,,
CC(C)CCNC(=O)CSc1nc2c([nH]c3ccccc32)c(=O)n1-c1ccccc1 [Compound 27],,,,,,61,38,53,62,56,,,,,
CCCC(C)NC(=O)CSc1nc2c([nH]c3ccccc32)c(=O)n1-c1ccccc1 (centres unmarked) [Compound 30],,,,,,12,13,6,55,17,,,,,
O=C(CSc1nc2c([nH]c3ccccc32)c(=O)n1-c1ccccc1)Nc1ccccc1 [Compound 13],,,,,,11,31,15,44,21,,,,,
CCCCCn1c2ccccc2c2nc(SCC(=O)NC3CCCCC3)n(-c3ccccc3)c(=O)c21 [Compound 49],5,11,1,<1,6,,,,,,,,,,
Cc1ccc(-n2c(SCC(=O)NC3CCCCC3)nc3c([nH]c4ccccc43)c2=O)cc1 [Compound 38],,,,,,,,,,,<1,2,6,<1,2
O=C(CSc1nc2c([nH]c3ccccc32)c(=O)n1-c1ccccc1)Nc1nccs1 [Compound 21],,,,,,1,12,5,<1,2,,,,,
CCC(CC)NC(=O)CSc1nc2c([nH]c3ccccc32)c(=O)n1-c1ccccc1 [Compound 31],,,,,,10,11,<1,26,8,,,,,

SMILES,mouse IL-6 (IL-6; [3]),"human TLR4 (TLR4 [1]; Table 1, R^3 series)","human IL-8 (IL-8; Table 1, R^3 series)","mouse IP-10 (IP-10; Table 1, R^3 series)","mouse TLR4 (TLR4 [2]; Table 1, R^3 series)","mouse IL-6 (IL-6; Table 2, R^2 series)","human TLR4 (TLR4 [1]; Table 2, R^2 series)","human IL-8 (IL-8; Table 2, R^2 series)","mouse IP-10 (IP-10; Table 2, R^2 series)","mouse TLR4 (TLR4 [2]; Table 2, R^2 series)","mouse IL-6 (IL-6; Table 3, R^1 series)","human TLR4 (TLR4 [1]; Table 3, R^1 series)","human IL-8 (IL-8; Table 3, R^1 series)","mouse IP-10 (IP-10; Table 3, R^1 series)","mouse TLR4 (TLR4 [2]; Table 3, R^1 series)"
O=C(CSc1nc2c([nH]c3ccccc32)c(=O)n1-c1ccccc1)NC1CCCCCCC1 [Compound 10],,,,,,114,64,73,98,95,,,,,
O=C(CSc1nc2c([nH]c3ccccc32)c(=O)n1-c1ccc2ccccc2c1)NC1CCCCC1 [Compound 39],,,,,,,,,,,3,3,<1,<1,6
O=C(CSc1nc2c([nH]c3ccccc32)c(=O)n1C1CCCCC1)NC1CCCCC1 [Compound 36],,,,,,,,,,,71,40,27,61,56
O=C(CSc1nc2c([nH]c3ccccc32)c(=O)n1-c1ccccc1)NC1CCCC1 [Compound 11],,,,,,53,23,5,52,28,,,,,
O=C(CSc1nc2c([nH]c3ccccc32)c(=O)n1-c1ccccc1)Nc1cccc(F)c1 [Compound 16],,,,,,14,39,13,45,11,,,,,
CCCCCCNC(=O)CSc1nc2c([nH]c3ccccc32)c(=O)n1-c1ccccc1 [Compound 25],,,,,,<1,8,7,<1,4,,,,,
CCC(C)CCNC(=O)CSc1nc2c([nH]c3ccccc32)c(=O)n1-c1ccccc1 (centres unmarked) [Compound 29],,,,,,30,17,23,45,29,,,,,
O=C(CSc1nc2c([nH]c3ccccc32)c(=O)n1CCc1ccccc1)NC1CCCCC1 [Compound 40],,,,,,,,,,,<1,1,5,<1,1
O=C(CSc1nc2c([nH]c3ccccc32)c(=O)n1-c1ccccc1)Nc1ccc2cn[nH]c2c1 [Compound 20],,,,,,3,<1,7,<1,<1,,,,,
O=C(CSc1nc2c([nH]c3ccccc32)c(=O)n1-c1ccccc1)NC1CCC1 [Compound 12],,,,,,35,32,19,66,18,,,,,
CCNC(=O)CSc1nc2c([nH]c3ccccc32)c(=O)n1-c1ccccc1 [Compound 22],,,,,,<1,8,4,<1,<1,,,,,
Cc1cccc(NC(=O)CSc2nc3c([nH]c4ccccc43)c(=O)n2-c2ccccc2)c1 [Compound 17],,,,,,19,116,54,55,13,,,,,
O=C(CSc1nc2c([nH]c3ccccc32)c(=O)n1-c1ccc(F)cc1)NC1CCCCC1 [Compound 37],,,,,,,,,,,48,51,5,72,41
O=C(CSc1nc2c([nH]c3ccccc32)c(=O)n1-c1ccccc1)Nc1ccc2ccccc2c1 [Compound 18],,,,,,<1,21,<1,<1,2,,,,,
O=C(CSc1nc2c([nH]c3ccccc32)c(=O)n1-c1ccccc1)NC1CCCCC1 [Compound 1],100,100,100,100,100,100,100,100,100,100,100,100,100,100,100
O=C(CSc1nc2c([nH]c3ccccc32)c(=O)n1-c1ccccc1)NC1CCCCCC1 [Compound 9],,,,,,126,100,118,107,99,,,,,
